Earlier results, collected in patent US7001916B1, “Epothilon derivatives, method for the production and the use thereof as pharmaceuticals” (priority 1999, dated 2006).

Tested on: P-glycoprotein-forming multiresistant tumor lines
Details: in comparison to taxol

Row | SMILES | activity against P-glycoprotein-forming multiresistant tumor lines
1 | C/C(=C\c1csc(C)n1)[C@@H]1C[C@@H]2O[C@@H]2CCC[C@H](C)[C@H](O)[C@@H](C)C(=O)C(C)(C)[C@@H](O)CC(=O)O1 [Epothilone A, epothilone A] | significantly higher activity
2 | C/C(=C\c1csc(C)n1)[C@@H]1C[C@@H]2O[C@]2(C)CCC[C@H](C)[C@H](O)[C@@H](C)C(=O)C(C)(C)[C@@H](O)CC(=O)O1 [Epothilone B, epothilone B] | significantly higher activity
